# Results taken from publication PMC12517324, “Hyperagonism of a Vitamin D Receptor Agonist/Histone Deacetylase Inhibitor Hybrid Molecule” (Journal of Medicinal Chemistry, 2025).
# Tested on: B16–F10 cells
# Experiment: RNaseq gene expression profiling
# Type: cell-based, mouse
# Conditions: RNAseq
# Protocol: AC-340 superinduced CYP24A1 expression in all cell lines tested, and ZG-126 appeared to be a hyperagonist in SK-MEL-28 cells. […] AC-340 treatment produced 3 times more differentially expressed genes (DEGs) than AM-193, with ZG-126 producing an intermediate number (Figure A). […] The varying effects of each treatment on the numbers of regulated genes and the fold changes observed are reflected in plots of log-fold changes and volcano plots (Figure S3B).
# A quality control was performed before sequencing in paired-end at 50 M reads by Illumina NovaSeq 6000 S4 PE100. After sequencing, the FASTQ files were sent to us and all downstream analysis were performed on Galaxy (Galaxy (usegalaxy.org)). First, trimmomatic tool was used to remove the adapters from the reads. Then, using the alignment tool, HISAT2, the reads were mapped to the mouse genome. In the next step, the counted reads were annotated and finally the list of differentially expressed genes (DEGs) for each treatment was obtained using the preinstalled R package called Limma.
smiles,measurement,setting,value
CCC(CC)(c1ccc(OCCCCCC(=O)NO)cc1)c1ccc(OCC(O)C(C)(C)C)c(C)n1 (stereo not shown) [AM-193],logFC Acat2,"gene Acat2, AM193-significant genes",-0.7924
same,logFC Agt,"gene Agt, AM193-significant genes",-0.9491
same,logFC Aimp2,"gene Aimp2, AM193-significant genes",-0.7904
same,logFC Alyref,"gene Alyref, AM193-significant genes",-0.7893
same,logFC Anln,"gene Anln, AM193-significant genes",-0.751
same,logFC Aurkb,"gene Aurkb, AM193-significant genes",-0.7442
same,logFC B3galt5,"gene B3galt5, AM193-significant genes",-0.7772
same,logFC Bhlhe40,"gene Bhlhe40, AM193-significant genes",-0.9608
same,logFC Birc5,"gene Birc5, AM193-significant genes",-0.9013
same,logFC Bnip1,"gene Bnip1, AM193-significant genes",-0.7195
same,logFC Bora,"gene Bora, AM193-significant genes",-0.8854
same,logFC Brca1,"gene Brca1, AM193-significant genes",-0.7501
same,logFC Bsn,"gene Bsn, AM193-significant genes",-0.8525
same,logFC Cad,"gene Cad, AM193-significant genes",-1.103
same,logFC Calr,"gene Calr, AM193-significant genes",-0.7283
same,logFC Ccl5,"gene Ccl5, AM193-significant genes",-0.8403
same,logFC Ccna2,"gene Ccna2, AM193-significant genes",-0.7214
same,logFC Ccnb1,"gene Ccnb1, AM193-significant genes",-0.7431
same,logFC Ccnf,"gene Ccnf, AM193-significant genes",-0.8441
same,logFC Cd3eap,"gene Cd3eap, AM193-significant genes",-0.7422
same,logFC Cdc6,"gene Cdc6, AM193-significant genes",-0.8307
same,logFC Cdc20,"gene Cdc20, AM193-significant genes",-0.7899
same,logFC Cdc25c,"gene Cdc25c, AM193-significant genes",-0.8576
same,logFC Cdk1,"gene Cdk1, AM193-significant genes",-0.7282
same,logFC Cdk2,"gene Cdk2, AM193-significant genes",-0.7948
same,logFC Cenpa,"gene Cenpa, AM193-significant genes",-0.7639
same,logFC Cenpn,"gene Cenpn, AM193-significant genes",-0.717
same,logFC Cep152,"gene Cep152, AM193-significant genes",-0.7072
same,logFC Cse1l,"gene Cse1l, AM193-significant genes",-0.7192
same,logFC Dctd,"gene Dctd, AM193-significant genes",-1.041
same,logFC Ddah1,"gene Ddah1, AM193-significant genes",-1.0571
same,logFC Dhcr24,"gene Dhcr24, AM193-significant genes",-1.0227
same,logFC Dis3,"gene Dis3, AM193-significant genes",-0.7516
same,logFC Dkc1,"gene Dkc1, AM193-significant genes",-0.7246
same,logFC Dnph1,"gene Dnph1, AM193-significant genes",-0.7927
same,logFC E2f8,"gene E2f8, AM193-significant genes",-0.7725
same,logFC Egln1,"gene Egln1, AM193-significant genes",-1.099
same,logFC Elovl6,"gene Elovl6, AM193-significant genes",-0.8086
same,logFC Eme1,"gene Eme1, AM193-significant genes",-0.7703
same,logFC Eps8,"gene Eps8, AM193-significant genes",-0.9363
same,logFC Espl1,"gene Espl1, AM193-significant genes",-0.8155
same,logFC Exosc6,"gene Exosc6, AM193-significant genes",-0.7177
same,logFC Exosc8,"gene Exosc8, AM193-significant genes",-0.7524
same,logFC Fam162a,"gene Fam162a, AM193-significant genes",-1.049
same,logFC Fam83d,"gene Fam83d, AM193-significant genes",-0.8732
same,logFC Fasn,"gene Fasn, AM193-significant genes",-0.7289
same,logFC Fdps,"gene Fdps, AM193-significant genes",-0.7443
same,logFC Fkbp11,"gene Fkbp11, AM193-significant genes",-1.012
same,logFC Foxm1,"gene Foxm1, AM193-significant genes",-0.7084
same,logFC Fubp1,"gene Fubp1, AM193-significant genes",-0.7875
same,logFC Fut11,"gene Fut11, AM193-significant genes",-0.7657
same,logFC Gamt,"gene Gamt, AM193-significant genes",-0.9245
same,logFC Gar1,"gene Gar1, AM193-significant genes",-0.799
same,logFC Gcat,"gene Gcat, AM193-significant genes",-1.125
same,logFC Gemin4,"gene Gemin4, AM193-significant genes",-0.7731
same,logFC Gins1,"gene Gins1, AM193-significant genes",-0.7214
same,logFC Gjb2,"gene Gjb2, AM193-significant genes",-0.8099
same,logFC Gm973,"gene Gm973, AM193-significant genes",-0.7844
same,logFC Grhpr,"gene Grhpr, AM193-significant genes",-0.8764
same,logFC Grwd1,"gene Grwd1, AM193-significant genes",-0.9726
same,logFC Gys1,"gene Gys1, AM193-significant genes",-0.7213
same,logFC H1f3,"gene H1f3, AM193-significant genes",-0.9967
same,logFC H1f6,"gene H1f6, AM193-significant genes",-1.042
same,logFC H2ac6,"gene H2ac6, AM193-significant genes",-0.96
same,logFC H2ac8,"gene H2ac8, AM193-significant genes",-0.9016
same,logFC H2ac11,"gene H2ac11, AM193-significant genes",-0.8838
same,logFC H2ac25,"gene H2ac25, AM193-significant genes",-0.7891
same,logFC H2ax,"gene H2ax, AM193-significant genes",-0.7149
same,logFC H2bc6,"gene H2bc6, AM193-significant genes",-0.7735
same,logFC H2bc8,"gene H2bc8, AM193-significant genes",-0.9803
same,logFC H2bc9,"gene H2bc9, AM193-significant genes",-1.042
same,logFC H2bc11,"gene H2bc11, AM193-significant genes",-0.7444
same,logFC H2bc18,"gene H2bc18, AM193-significant genes",-0.8059
same,logFC H2bu1-ps,"gene H2bu1-ps, AM193-significant genes",-0.9542
same,logFC H3c1,"gene H3c1, AM193-significant genes",-0.892
same,logFC H3c6,"gene H3c6, AM193-significant genes",-0.7599
same,logFC H3c7,"gene H3c7, AM193-significant genes",-0.9595
same,logFC H4c1,"gene H4c1, AM193-significant genes",-0.7797
same,logFC H4c2,"gene H4c2, AM193-significant genes",-0.7954
same,logFC Higd1a,"gene Higd1a, AM193-significant genes",-0.903
same,logFC Hirip3,"gene Hirip3, AM193-significant genes",-0.7302
same,logFC Hmga1,"gene Hmga1, AM193-significant genes",-1.033
same,logFC Hmga1b,"gene Hmga1b, AM193-significant genes",-1.051
same,logFC Hmgb2,"gene Hmgb2, AM193-significant genes",-0.8226
same,logFC Hmgcs1,"gene Hmgcs1, AM193-significant genes",-0.7755
same,logFC Hmgn2,"gene Hmgn2, AM193-significant genes",-0.7752
same,logFC Hpse,"gene Hpse, AM193-significant genes",-0.8433
same,logFC Hrob,"gene Hrob, AM193-significant genes",-0.8536
same,logFC Hspa5,"gene Hspa5, AM193-significant genes",-0.7657
same,logFC Idi1,"gene Idi1, AM193-significant genes",-1.099
same,logFC Ier3,"gene Ier3, AM193-significant genes",-0.7432
same,logFC Impa2,"gene Impa2, AM193-significant genes",-0.8388
same,logFC Impdh2-ps,"gene Impdh2-ps, AM193-significant genes",-0.7159
same,logFC Incenp,"gene Incenp, AM193-significant genes",-0.7108
same,logFC Ip6k3,"gene Ip6k3, AM193-significant genes",-0.7379
same,logFC Irgm1,"gene Irgm1, AM193-significant genes",-0.7387
same,logFC Jmjd6,"gene Jmjd6, AM193-significant genes",-0.8319
same,logFC Jpt2,"gene Jpt2, AM193-significant genes",-0.8326
same,logFC Kif2c,"gene Kif2c, AM193-significant genes",-0.7884
same,logFC Kif14,"gene Kif14, AM193-significant genes",-0.8043
same,logFC Kif20b,"gene Kif20b, AM193-significant genes",-0.7216
same,logFC Kif22,"gene Kif22, AM193-significant genes",-0.8428
same,logFC Kif23,"gene Kif23, AM193-significant genes",-0.7776
same,logFC Ldha,"gene Ldha, AM193-significant genes",-0.9079
same,logFC Ldlr,"gene Ldlr, AM193-significant genes",-0.7666
same,logFC Lig1,"gene Lig1, AM193-significant genes",-0.7368
same,logFC Lmnb1,"gene Lmnb1, AM193-significant genes",-0.9349
same,logFC Loxl2,"gene Loxl2, AM193-significant genes",-1.106
same,logFC Lpcat1,"gene Lpcat1, AM193-significant genes",-1.098
same,logFC Lpgat1,"gene Lpgat1, AM193-significant genes",-0.8431
same,logFC Lrp8,"gene Lrp8, AM193-significant genes",-0.9511
same,logFC Lyar,"gene Lyar, AM193-significant genes",-0.724
same,logFC Man2a1,"gene Man2a1, AM193-significant genes",-0.7409
same,logFC Mcm10,"gene Mcm10, AM193-significant genes",-0.7922
same,logFC Mest,"gene Mest, AM193-significant genes",-1.125
same,logFC Met,"gene Met, AM193-significant genes",-1.057
same,logFC Mitf,"gene Mitf, AM193-significant genes",-0.8034
same,logFC Mki67,"gene Mki67, AM193-significant genes",-0.7294
same,logFC Mxd3,"gene Mxd3, AM193-significant genes",-0.9949
same,logFC Mybl2,"gene Mybl2, AM193-significant genes",-1.058
same,logFC Naa10,"gene Naa10, AM193-significant genes",-0.8589
same,logFC Nampt,"gene Nampt, AM193-significant genes",-0.7338
same,logFC Nasp,"gene Nasp, AM193-significant genes",-0.9086
same,logFC Nbn,"gene Nbn, AM193-significant genes",-0.7109
same,logFC Ndc80,"gene Ndc80, AM193-significant genes",-0.7825
same,logFC Net1,"gene Net1, AM193-significant genes",-0.7159
same,logFC Nhp2,"gene Nhp2, AM193-significant genes",-0.7487
same,logFC Nhsl1,"gene Nhsl1, AM193-significant genes",-0.7298
same,logFC Nmi,"gene Nmi, AM193-significant genes",-0.8028
same,logFC Noc2l,"gene Noc2l, AM193-significant genes",-0.884
same,logFC Nr4a1,"gene Nr4a1, AM193-significant genes",-0.9791
same,logFC Nsun2,"gene Nsun2, AM193-significant genes",-0.766
same,logFC P4ha2,"gene P4ha2, AM193-significant genes",-0.8086
same,logFC Pbk,"gene Pbk, AM193-significant genes",-0.8895
same,logFC Pclaf,"gene Pclaf, AM193-significant genes",-0.7086
same,logFC Pfkl,"gene Pfkl, AM193-significant genes",-1.068
same,logFC Pfkp,"gene Pfkp, AM193-significant genes",-0.83
same,logFC Pgf,"gene Pgf, AM193-significant genes",-1.056
same,logFC Pgm1,"gene Pgm1, AM193-significant genes",-0.9062
same,logFC Pgp,"gene Pgp, AM193-significant genes",-0.8532
same,logFC Pif1,"gene Pif1, AM193-significant genes",-0.8212
same,logFC Pimreg,"gene Pimreg, AM193-significant genes",-0.8591
same,logFC Plekha2,"gene Plekha2, AM193-significant genes",-0.8787
same,logFC Plk1,"gene Plk1, AM193-significant genes",-0.7788
same,logFC Plpp5,"gene Plpp5, AM193-significant genes",-0.8001
same,logFC Pmf1,"gene Pmf1, AM193-significant genes",-0.796
same,logFC Pnn,"gene Pnn, AM193-significant genes",-0.8904
same,logFC Pold1,"gene Pold1, AM193-significant genes",-0.8466
same,logFC Pold2,"gene Pold2, AM193-significant genes",-0.855
same,logFC Prkcz,"gene Prkcz, AM193-significant genes",-1.145
same,logFC Psmb10,"gene Psmb10, AM193-significant genes",-0.8103
same,logFC Ptpn6,"gene Ptpn6, AM193-significant genes",-0.8579
same,logFC Rcc1,"gene Rcc1, AM193-significant genes",-0.8765
same,logFC Rcc1l,"gene Rcc1l, AM193-significant genes",-0.7067
